Measurements reported in the supplement of paper PMC11061612.

Columns and labels:
[1] = test system: BxPC-3 (Pancreatic Carcinoma); assay: Bliss excess, mean over the matrix (fraction); higher = more synergy
Method in brief: (§1)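 Cell lines in DMEM/F12 or RPMI with 10% FBS were plated in 1536-well plates, held 24 hours at 37°C, 5% CO2, then given two-drug dose matrices for 72 hours (DMSO typically 0.2%). Viability was read by CellTiter-Glo 2.0 luminescence and scaled as inhibition from 0 (vehicle wells) to 1 (blank wells). Combination Emax is the second-highest inhibition in the matrix; Bliss excess is observed combination effect minus expected EA + EB − EA·EB, EA and EB being single-agent effects.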

KALS-1 (Glioblastoma) [2] = assay: as above
Method in brief: as §1

[3] = test system: SNU-423 (Hepatocellular Carcinoma); assay: as above
Method in brief: as §1

[4] = test system: SK-CO-1 (Colorectal Carcinoma); assay: as above
Method in brief: as §1

[5] = test system: COR-L88 (Small Cell Lung Carcinoma); assay: as above
Method in brief: as §1

[6] = test system: NAMALWA (Burkitt's Lymphoma); assay: as above
Method in brief: as §1

KALS-1 (Glioblastoma) [7] = assay: combination Emax (second highest fraction inhibited in the dose matrix, 72 h); higher = more inhibition; extreme values may be limits of the assay
Method in brief: as §1

SK-N-SH (Neuroblastoma) = assay: as above
Method in brief: as §1

[8] = test system: SNU-423 (Hepatocellular Carcinoma); assay: as above
Method in brief: as §1

[9] = test system: MS-1 (Small Cell Lung Carcinoma); assay: as above
Method in brief: as §1

[10] = test system: HPAF-II (Pancreatic Carcinoma); assay: as above
Method in brief: as §1

[11] = test system: LS-1034 (Colorectal Carcinoma); assay: as above
Method in brief: as §1

[12] = test system: SKG-IIIa (Cervical Carcinoma); assay: as above
Method in brief: as §1

[13] = test system: CPC-N (Small Cell Lung Carcinoma); assay: as above
Method in brief: as §1

[14] = test system: COR-L88 (Small Cell Lung Carcinoma); assay: as above
Method in brief: as §1

[15] = test system: SCC-4 (Oral Cavity Carcinoma); assay: as above
Method in brief: as §1

[16] = test system: ZR-75-30 (Breast Carcinoma); assay: as above
Method in brief: as §1

[17] = test system: C-33-A (Cervical Carcinoma); assay: as above
Method in brief: as §1

[18] = test system: NAMALWA (Burkitt's Lymphoma); assay: as above
Method in brief: as §1

IST-MEL1 (Melanoma) = assay: as above
Method in brief: as §1
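Wherever Bliss excess, mean over the matrix is given: after 72 h of two-drug dosing.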

| Compound | Bliss excess [1] | Bliss excess (KALS-1 (Glioblastoma) [2]) | Bliss excess [3] | Bliss excess [4] | Bliss excess [5] | Bliss excess [6] | combination Emax (KALS-1 (Glioblastoma) [7]) | combination Emax (SK-N-SH (Neuroblastoma)) | combination Emax [8] | combination Emax [9] | combination Emax [10] | combination Emax [11] | combination Emax [12] | combination Emax [13] | combination Emax [14] | combination Emax [15] | combination Emax [16] | combination Emax [17] | combination Emax [18] | combination Emax (IST-MEL1 (Melanoma)) |
| --- | --- | --- | --- | --- | --- | --- | --- | --- | --- | --- | --- | --- | --- | --- | --- | --- | --- | --- | --- | --- |
| O=C(c1cc(Cc2n[nH]c(=O)c3ccccc23)ccc1F)N1CCN(C(=O)C2CC2)CC1 [Olaparib] + Cc1c2c(nn1C)CSCc1cc(n(C)n1)CSc1cc(c3ccccc3c1)OCCCc1c(C(=O)O)n(C)c3c-2c(Cl)ccc13 [AZD5991] (first compound max 10 µM, 7x7, partner max 1 µM) | -0.066 | -0.0158 | -0.0503 | -0.0091 | 0.0223 | -0.0026 | 0.163 | 0.333 | 0.16 | 0.501 | 0.0669 | 0.0008 | 0.128 | 0.215 | 0.227 | 0.128 | 0.197 | 0.329 | 0.979 | 0.101 |
| CC1(C)CCC(CN2CCN(c3ccc(C(=O)NS(=O)(=O)c4ccc(NCC5CCOCC5)c([N+](=O)[O-])c4)c(Oc4cnc5[nH]ccc5c4)c3)CC2)=C(c2ccc(Cl)cc2)C1 [Venetoclax] + CS(=O)(=O)CCNCc1ccc(-c2ccc3ncnc(Nc4ccc(OCc5cccc(F)c5)c(Cl)c4)c3c2)o1 [Lapatinib] (first compound max 1 µM, 7x7, partner max 10 µM) | -0.0299 | -0.0431 | -0.0254 | 0.0109 | -0.0146 | -0.0072 | 0.223 | 0.509 | 0.246 | 0.473 | 0.192 | 0.322 | 0.201 | 0.148 | 0.534 | 0.368 | 0.823 | 0.444 | 0.25 | 0.293 |
| C[C@@H](Nc1cc(F)cc(F)c1)c1cc(C(=O)N(C)C)cc2c(=O)cc(N3CCOCC3)oc12 [AZD8186] + CC(=O)c1c(C)c2cnc(Nc3ccc(N4CCNCC4)cn3)nc2n(C2CCCC2)c1=O [Palbociclib] (first compound max 10 µM, 7x7, partner max 10 µM) | -0.0127 | 0.0114 | 0.0188 | 0.0163 | 0.0025 | 0.0544 | 0.38 | 0.492 | 0.454 | 0.295 | 0.466 | 0.438 | 0.235 | 0.262 | 0.201 | 0.327 | 0.336 | 0.353 | 0.616 | 0.545 |
| Cc1nc(-c2cn3c(n2)-c2ccc(-c4cnn(C(C)(C)C(N)=O)c4)cc2OCC3)n(C(C)C)n1 [Taselisib] + O=C(Nc1ccc2[nH]nc(-c3ccncc3)c2c1)[C@@H]1CCN(CC(=O)N2CCN(c3ccc(-c4ncccn4)cc3)CC2)C1 [SCH772984] (first compound max 10 µM, 7x7, partner max 5 µM) | 0.133 | -0.0253 | 0.0656 | 0.0763 | 0.004 | 0.0894 | 0.927 | 0.72 | 0.82 | 0.48 | 0.917 | 0.72 | 0.633 | 0.484 | 0.229 | 0.911 | 0.706 | 0.661 | 0.65 | 0.885 |
| Cc1cc2ncnn2cc1Nc1ncc2c(n1)n(C1CCOCC1)c(=O)n2C [AZD7648] + COc1cc([C@@H]2c3cc4c(cc3[C@@H](O[C@@H]3O[C@@H]5CO[C@@H](C)O[C@H]5[C@H](O)[C@H]3O)[C@H]3COC(=O)[C@H]23)OCO4)cc(OC)c1O [Etoposide] (first compound max 10 µM, 7x7, partner max 10 µM) | -0.0254 | 0.101 | 0.0551 | 0.0429 | -0.0241 | 0.0745 | 0.787 | 0.945 | 0.555 | 0.842 | 0.199 | 0.335 | 0.551 | 0.906 | 0.36 | 0.469 | 0.258 | 0.945 | 0.985 | 0.638 |
| O=C(c1cc(Cc2n[nH]c(=O)c3ccccc23)ccc1F)N1CCN(C(=O)C2CC2)CC1 [Olaparib] + CC1(C)CCC(CN2CCN(c3ccc(C(=O)NS(=O)(=O)c4ccc(NCC5CCOCC5)c([N+](=O)[O-])c4)c(Oc4cnc5[nH]ccc5c4)c3)CC2)=C(c2ccc(Cl)cc2)C1 [Venetoclax] (first compound max 10 µM, 7x7, partner max 1 µM) | -0.0569 | -0.0353 | -0.0472 | -0.0405 | 0.0604 | 0.0044 | 0.118 | 0.545 | 0.115 | 0.453 | 0.119 | 0.008 | 0.147 | 0.166 | 0.373 | 0.0794 | 0.158 | 0.305 | 0.456 | 0.628 |
| O=C(c1cc(Cc2n[nH]c(=O)c3ccccc23)ccc1F)N1CCN(C(=O)C2CC2)CC1 [Olaparib] + CN(CC[C@H](CSC1=CC=CC=C1)NC2=C(C=C(C=C2)S(=O)(=O)NC(=O)C3=CC=C(C=C3)N4CCC(CC4)[C@H](C5=CC=CC=C5C6=CC=C(C=C6)Cl)O)S(=O)(=O)C(F)(F)F)CCO [AZD4320] (first compound max 10 µM, 7x7, partner max 1 µM) | -0.0424 | -0.0432 | -0.0182 | 0.0256 | 0.0077 | -0.0236 | 0.156 | 0.688 | 0.236 | 0.636 | 0.796 | 0.0945 | 0.137 | 0.856 | 0.961 | 0.338 | 0.149 | 0.386 | 0.396 | 0.171 |
| C=CCn1c(=O)c2cnc(Nc3ccc(N4CCN(C)CC4)cc3)nc2n1-c1cccc(C(C)(C)O)n1 [AZD1775] + CCc1c2c(nc3ccc(O)cc13)-c1cc3c(c(=O)n1C2)COC(=O)[C@]3(O)CC [SN-38] (first compound max 1 µM, partner max 0.3 µM) | -0.101 | 0.0642 | -0.0644 | -0.0355 | -0.0248 | -0.0172 | 0.965 | 0.957 | 0.598 | 0.86 | 0.597 | 0.894 | 0.725 | 0.923 | 0.671 | 0.902 | 0.137 | 0.997 | 1 | 0.825 |
| N#Cc1cnc(Nc2cc(NC[C@H]3CNCCO3)c(C(F)(F)F)cn2)cn1 [SRA737] + Nc1ccn([C@@H]2O[C@H](CO)[C@@H](O)C2(F)F)c(=O)n1 [Gemcitabine] (first compound max 10 µM, 7x7, partner max 0.3 µM) | -0.0421 | 0.0597 | 0.0518 | 0.0698 | -0.0293 | 0.0256 | 0.87 | 0.852 | 0.745 | 0.945 | 0.61 | 0.919 | 0.575 | 0.916 | 0.617 | 0.758 | 0.312 | 0.951 | 1 | 0.709 |
| C=CCn1c(=O)c2cnc(Nc3ccc(N4CCN(C)CC4)cc3)nc2n1-c1cccc(C(C)(C)O)n1 [AZD1775] + Nc1ccn([C@@H]2O[C@H](CO)[C@@H](O)C2(F)F)c(=O)n1 [Gemcitabine] (first compound max 1 µM, partner max 0.3 µM) | -0.029 | 0.0299 | -0.0538 | -0.0262 | 0.0144 | 0.0247 | 0.929 | 0.879 | 0.655 | 0.838 | 0.551 | – | 0.643 | 0.897 | 0.65 | 0.688 | 0.24 | 0.996 | 1 | 0.662 |
| C[C@@H]1COCCN1c1cc(C2([S@](C)(=N)=O)CC2)nc(-c2ccnc3[nH]ccc23)n1 [AZD6738] + C1CC(C1)(C(=O)[O-])C(=O)[O-].N.N.[Pt+2] [Carboplatin] (first compound max 10 µM, 7x7, partner max 10 µM) | -0.0539 | -0.0426 | -0.0425 | 0.0009 | -0.0207 | -0.0293 | 0.802 | 0.818 | 0.39 | 0.659 | 0.36 | 0.677 | 0.407 | 0.8 | 0.299 | 0.552 | 0.262 | – | 0.896 | 0.679 |
| N#Cc1cnc(Nc2cc(NC[C@H]3CNCCO3)c(C(F)(F)F)cn2)cn1 [SRA737] + C=CCn1c(=O)c2cnc(Nc3ccc(N4CCN(C)CC4)cc3)nc2n1-c1cccc(C(C)(C)O)n1 [AZD1775] (first compound max 10 µM, partner max 1 µM) | 0.0061 | 0.0439 | 0.0786 | 0.0306 | 0.111 | 0.0724 | 0.927 | 0.804 | 0.648 | 0.926 | 0.495 | 0.809 | 0.465 | – | 0.685 | 0.64 | 0.266 | 0.97 | 0.988 | 0.655 |
| CN(CCO)CC[C@H](CSc1ccccc1)Nc1ccc(S(=O)(=O)NC(=O)c2ccc(N3CCC([C@@H](O)c4ccccc4-c4ccc(Cl)cc4)CC3)cc2)cc1S(=O)(=O)C(F)(F)F [AZD4320] + Nc1ccn([C@@H]2O[C@H](CO)[C@@H](O)C2(F)F)c(=O)n1 [Gemcitabine] (first compound max 1 µM, 7x7, partner max 0.3 µM) | -0.0248 | 0.0063 | 0.0088 | -0.0065 | 0.0283 | – | 0.595 | 0.968 | 0.605 | 0.78 | 0.759 | 0.592 | 0.475 | 0.962 | 0.947 | 0.743 | 0.216 | 0.796 | 0.99 | – |
